Laboratory results published in patent US20240300977A1, “INHIBITORS OF DNA-DEPENDENT PROTEIN KINASE AND COMPOSITIONS AND USES THEREOF” (Intellia Therapeutics, Inc., priority 2021, published 2024).
Several values for one entry are separate records, joined by “and”; a condition that tells them apart may be missing. Equal entries are not always repeated.

Columns and labels:
T cells [1] = assay: TRAC LNP editing and GFP insertion in activated T cells with DNA-PK inhibitors, flow cytometry; conditions: day 5 post-edit; for Mean % CD3^−/GFP+ Cells (n = 3): GFP positive of the CD3 negative T cells; for Mean % CD3^− Cells (n = 3): TRAC LNP + GFP AAV
T cells [2] = assay: Fold T cell expansion following TRBC/TRAC editing with WT1-TCR AAV and DNA-PK inhibitors; conditions: Table 4
697 ALL cells (697-luc2) = assay: WT1 TCR T cell mediated cytotoxicity, luciferase assay; type: cell-based, human; conditions: WT1-T cells (HD1) engineered with inhibitor, 48h, duplicate values
Procedure: (§1) The ability of WT1-TCR T cells engineered from donors 007HD and 008HD to kill hematological cancer cells expressing natural levels of WT1 and release cytokines was evaluated. TCR KO cells generated as described above but without TRAC/AAV addition were used as a negative, non-killing control. Briefly, T cells were co-cultured with luciferase expressing 697 ALL cells (697-luc2), or K562-luc2 cells transduced to express HLA-A*02:01 (K5692-HLA-A*02:01-luc2) at various effector to target (E:T) ratios (2:1, 1:1, 0.5:1) in TCEM without the addition of IL-2, IL-7, or IL-15. […] After 24h of co-culture, supernatants from the 2:1 E:T ratio group were harvested and used in an MSD U/R-PLEX assay to quantify IL-2, TNFα, IFNγ, and Granzyme B following manufacturers protocol (Mesoscale Discovery). After 48h of co-culture luciferase activity was quantified using the Bright-GLO Luciferase Assay System (Promega) in relative luminescence units (RLU). Percent specific lysis was determined using the formula:
(§2) % Specific Lysis=100−((RLU[Experimental Well]/RLU[Target Only Well])*100)

[3] = system: K562-luc2 cells transduced to express HLA-A*02:01; assay: as above; type: cell-based, human; conditions: WT1-T cells (HD1) engineered with inhibitor, K562-HLA-A*02:01, 48h, duplicate values
Procedure: as §1, §2

| SMILES | Mean % CD3^−/GFP+ Cells (n = 3) (T cells [1]; compound 0.0625 uM) [%] | Mean % CD3^−/GFP+ Cells (n = 3) (T cells [1]; compound 1 uM) [%] | impact of T cell expansion by DNA-PK treatment (T cells [2]) | further results |
| --- | --- | --- | --- | --- |
| Cc1cc2ncnn2c(C)c1Nc1cc2c(cn1)n(C)c(=O)n2C1CCOCC1 [Compound 7, 6-((5,7-dimethyl-[1,2,4]triazolo[1,5-a]pyridin-6-yl)amino)-3-methyl-1-(tetrahydro-2H-pyran-4-yl)-1,3-dihydro-2H-imidazo[4,5-c]pyridin-2-one] | 29.90 | 43.43 | no impact |  |
| Cc1cc2ncnn2c(C)c1Nc1ncc2c(n1)n(C1CCOCC1)c(=O)n2C [Compound 8, 2-((5,7-dimethyl-[1,2,4]triazolo[1,5-a]pyridin-6-yl)amino)-7-methyl-9-(tetrahydro-2H-pyran-4-yl)-7,9-dihydro-8H-purin-8-one] | 32.23 | 70.07 | no impact |  |
| Cc1cc2ncnn2cc1Nc1ncc2c(n1)n(C1CCOCC1)c(=O)n2C [Compound 1, 7-methyl-2-((7-methyl-[1,2,4]triazolo[1,5-a]pyridin-6-yl)amino)-9-(tetrahydro-2H-pyran-4-yl)-7,9-dihydro-8H-purin-8-one] |  |  |  | Percent specific lysis (697 ALL cells (697-luc2); E:T 0.5, donor 007HD): 12.14% and 5.54%; Percent specific lysis (697 ALL cells (697-luc2); E:T 0.5, donor 008HD): 43.47% and 44.29%; Percent specific lysis (697 ALL cells (697-luc2); E:T 1, donor 007HD): 29.28% and 30.44%; Percent specific lysis (697 ALL cells (697-luc2); E:T 1, donor 008HD): 77.92% and 81.24%; Percent specific lysis (697 ALL cells (697-luc2); E:T 2, donor 007HD): 65.54% and 61.43%; Percent specific lysis (697 ALL cells (697-luc2); E:T 2, donor 008HD): 98.09% and 98.25%; Percent specific lysis ([3]; E:T 0.5, donor 007HD): 37.10% and 36.80%; Percent specific lysis ([3]; E:T 0.5, donor 008HD): 56.76% and 58.18%; Percent specific lysis ([3]; E:T 1, donor 007HD): 69.32% and 70.95%; Percent specific lysis ([3]; E:T 1, donor 008HD): 83.56% and 79.54%; Percent specific lysis ([3]; E:T 2, donor 007HD): 95.40% and 92.50%; Percent specific lysis ([3]; E:T 2, donor 008HD): 99.29% and 99.66% |
| Cc1cc2ncnn2cc1Nc1ncc2c(c1C)n(C1CCOCC1)c(=O)n2C [Compound 9, 3,7-dimethyl-6-((7-methyl-[1,2,4]triazolo[1,5-a]pyridin-6-yl)amino)-1-(tetrahydro-2H-pyran-4-yl)-1,3-dihydro-2H-imidazo[4,5-c]pyridin-2-one] | 28.27 | 27.83 |  |  |
| Cc1cc2ncnn2cc1Nc1ncc2c(n1)n(C1CC(O)C1)c(=O)n2C (centres unmarked) [Compound 5, 9-(3-hydroxycyclobutyl)-7-methyl-2-((7-methyl-[1,2,4]triazolo[1,5-a]pyridin-6-yl)amino)-7,9-dihydro-8H-purin-8-one] | 53.00 | 78.97 |  |  |
| Cc1cc2ncnn2cc1Nc1cc2c(cn1)n(C)c(=O)n2C1CCOCC1 [Compound 6, 3-methyl-6-((7-methyl-[1,2,4]triazolo[1,5-a]pyridin-6-yl)amino)-1-(tetrahydro-2H-pyran-4-yl)-1,3-dihydro-2H-imidazo[4,5-c]pyridin-2-one] | 35.10 | 74.40 | no impact | Mean % CD3^− Cells (n = 3) (T cells [1]; compound 0.0625 uM): 33.87%; Mean % CD3^− Cells (n = 3) (T cells [1]; compound 1 uM): 58.30% |
| CCn1c(=O)n(C2CCOCC2)c2nc(Nc3cn4ncnc4cc3C)ncc21 [Compound 2, 7-ethyl-2-((7-methyl-[1,2,4]triazolo[1,5-a]pyridin-6-yl)amino)-9-(tetrahydro-2H-pyran-4-yl)-7,9-dihydro-8H-purin-8-one] | 47.93 | 79.40 |  |  |
